Measurements as given in US7547783B2, “Transition metal complexes” (Shell Oil Company, priority 2004, dated 2009).

Experiment: practical solubility of the transition metal complexes at ambient temperature
Conditions: not given
Protocol: The practical solubility of the transition metal complexes was determined at ambient temperature in the inert atmosphere of the dry box.
1 mg of solid complex was contacted with 0.5 ml of benzene-D6 in an NMR-tube (5 mm external diameter) and gently swirled.

| solubility in toluene or benzene-D6 | SMILES | solubility in C6D6 (in words) |
| --- | --- | --- |
| – | CCCCCCCCCCCCCCCCCCCCOc1cc(C)c([N+]2=C(C)c3cccc4[n+]3[Fe]2([Cl])([Cl])[N+](c2cc(C(C)C)c(OCCCCCCCCCCCCCCCCCCCC)cc2C)=C4C)cc1C(C)C [Example 12, 2,6-bis[1-(2-methyl-4-eicosanoxy-5-isopropylphenylimino)ethyl]pyridine iron (II) dichloride] | soluble |
| ca. 50 mg/ml | CCCCCCCCCCCCCCCCCCCCOc1c(-c2ccccc2)cc(N=C(C)c2cccc(C(C)=Nc3cc(-c4ccccc4)c(OCCCCCCCCCCCCCCCCCCCC)c(-c4ccccc4)c3)n2)cc1-c1ccccc1.[Cl-].[Cl-].[Cl-].[Cr+3] [Example 9, 2,6-bis[1-(4-eicosanoxy-3,5-diphenylphenylimino)ethyl]pyridine chromium[III] trichloride complex] | – |

Same assay, conditions: 20 °C, organic solvent or mixture, thermodynamic from solid

| SMILES | solubility at 24 h |
| --- | --- |
| CCCOc1c(-c2ccccc2)cc([N+]2=C(C)c3cccc4[n+]3[Co]2([Cl])([Cl])[N+](c2c(C)cc(C)cc2C)=C4C)cc1-c1ccccc1 [Example 13, 2-[1-(2,4,6-trimethylphenylimino)ethyl]-6-[1-(4-propoxy-3,5-diphenylphenylimino)ethyl]pyridine cobalt[II] chloride complex, reference compound] | < 1 mg/mL |
| CCCCCCCCCCCCCCCCCCCCOc1ccc([N+]2=C(C)c3cccc4[n+]3[Fe]2([Cl])([Cl])[N+](c2ccc(OCCCCCCCCCCCCCCCCCCCC)cc2C)=C4C)c(C)c1 [Example 11, 2,6-bis[1-(4-eicosanoxy-2-methylphenylimino)ethyl]pyridine iron[II] chloride complex, reference compound] | < 1 mg/mL |
| CCCCCCCCCCCCCCCCCCCCOc1c(-c2ccccc2)cc([N+]2=C(C)c3cccc4[n+]3[Co]2([Cl])([Cl])[N+](c2ccccc2C(C)(C)C)=C4C)cc1-c1ccccc1 [Example 10, 2-[1-(2-tert-butylphenylimino)ethyl]-6-[1-(4-eicosanoxy-3,5-diphenylphenylimino)ethyl]pyridine cobalt[II] chloride complex] | ~50 mg/mL |
| CCCCCCCCCCCCCCCCCCCCOc1c(-c2ccccc2)cc([N+]2=C(C)c3cccc4[n+]3[Co]2([Cl])([Cl])[N+](c2cc(-c3ccccc3)c(OCCCCCCCCCCCCCCCCCCCC)c(-c3ccccc3)c2)=C4C)cc1-c1ccccc1 [Example 8, 2,6-bis[1-(4-eicosanoxy-3,5-diphenylphenylimino)ethyl]pyridine cobalt[II] dichloride complex] | ~100 mg/mL |
| CC1=[N+](c2cc(-c3ccccc3)c(O)c(-c3ccccc3)c2)[Fe]2([Cl])([Cl])[N+](c3c(C)cc(C)cc3C)=C(C)c3cccc1[n+]32 [Example 14, 2-[1-(2,4,6-trimethylphenylimino)ethyl]-6-[1-(4-hydroxy-3,5-diphenylphenylimino)ethyl]pyridine iron (II) dichloride, reference compound] | < 1 mg/mL |
| CCCCCCCCCCCCCCCCCCCCOc1c(-c2ccccc2)cc([N+]2=C(C)c3cccc4[n+]3[Fe]2([Cl])([Cl])[N+](c2c(C)cc(C)cc2C)=C4C)cc1-c1ccccc1 [Example 3, 2-[1-(2,4,6-trimethylphenylimino)ethyl]-6-[1-(4-eicosanoxy-3,5-diphenylphenylimino)ethyl]pyridine iron[II] dichloride complex] | ~50 mg/mL |
| CCCCCCCCCCCCCCCCCCCCOc1c(-c2ccccc2)cc([N+]2=C(C)c3cccc4[n+]3[Fe]2([Cl])([Cl])[N+](c2cc(-c3ccccc3)c(OCCCCCCCCCCCCCCCCCCCC)c(-c3ccccc3)c2)=C4C)cc1-c1ccccc1 [Example 7, 2,6-bis[1-(4-eicosanoxy-3,5-diphenylphenylimino)ethyl]pyridine iron [II] dichloride complex] | ~100 mg/mL |
| CCCCCCCCCCCCCCCCCCCCOc1cc(C)c([N+]2=C(C)c3cccc4[n+]3[Fe]2([Cl])([Cl])[N+](c2cc(C(C)C)c(OCCCCCCCCCCCCCCCCCCCC)cc2C)=C4C)cc1C(C)C [Example 12, 2,6-bis[1-(2-methyl-4-eicosanoxy-5-isopropylphenylimino)ethyl]pyridine iron (II) dichloride] | ~10 mg/mL |
| CC1=[N+](c2cc(C(C)(C)C)cc(C(C)(C)C)c2)[Fe]2([Cl])([Cl])[N+](c3c(C)cc(C)cc3C)=C(C)c3cccc1[n+]32 [Example 2, 2-[1-(2,4,6-trimethylphenylimino)ethyl]-6-[1-(3,5-di-tert-butylphenylimino)ethyl]pyridine iron[II] chloride complex, reference compound] | < 1 mg/mL |
| CCCCCCCCCCCCCCCCCCCCOc1c(-c2ccccc2)cc([N+]2=C(C)c3cccc4[n+]3[Co]2([Cl])([Cl])[N+](c2c(C)cc(C)cc2C)=C4C)cc1-c1ccccc1 [Example 4, 2-[1-(2,4,6-trimethylphenylimino)ethyl]-6-[1-(4-eicosanoxy-3,5-diphenylphenylimino)ethyl]pyridine cobalt[II] dichloride complex] | 50 mg/mL |

Same assay, conditions: at 20° C.

| SMILES | solubility in toluene or benzene-D6 |
| --- | --- |
| CCCCCCCCCCCCCCCCCCCCOc1c(-c2ccccc2)cc(N=C(C)c2cccc(C(C)=Nc3c(C)cc(C)cc3C)n2)cc1-c1ccccc1.[Cl-].[Cl-].[Cl-].[Cr+3] [Example 6, 2-[1-(2,4,6-trimethylphenylimino)ethyl]-6-[1-(4-eicosanoxy-3,5-diphenylphenylimino)ethyl]pyridine chromium[III] trichloride complex] | ca. 1 mg/ml |
| CCCCCCCCCCCCCCCCCCCCOc1c(-c2ccccc2)cc(N=C(C)c2cccc(C(C)=Nc3c(C)cc(C)cc3C)n2)cc1-c1ccccc1.FC(F)(F)c1cc([B-](c2cc(C(F)(F)F)cc(C(F)(F)F)c2)(c2cc(C(F)(F)F)cc(C(F)(F)F)c2)c2cc(C(F)(F)F)cc(C(F)(F)F)c2)cc(C(F)(F)F)c1.[Cl][Co+] [Example 5, 2-[1-(2,4,6-trimethylphenylimino)ethyl]-6-[1-(4-eicosanoxy-3,5-diphenylphenylimino)ethyl]pyridine cobalt[II] chloride tetrakis[3,5-bis[trifluoromethyl)phenyl]borate] | ca. 10 mg/ml |
